# Assays:
# Flt3 kinase = target: T1, Flt3 kinase (Homo sapiens, UniProt P36888); test: Flt3 kinase assay (33P incorporation into Poly(Glu-Tyr)); format: biochemical; conditions: 100 nM test compound; read-out: Inhibition at 100 nM (%) Flt-3
# T1 construct: recombinant N-terminal 6×His-tagged Flt3 kinase domain construct expressed from baculovirus; 6xHis (N); made in house
# T1 sequence (P36888 610-943 limits assumed): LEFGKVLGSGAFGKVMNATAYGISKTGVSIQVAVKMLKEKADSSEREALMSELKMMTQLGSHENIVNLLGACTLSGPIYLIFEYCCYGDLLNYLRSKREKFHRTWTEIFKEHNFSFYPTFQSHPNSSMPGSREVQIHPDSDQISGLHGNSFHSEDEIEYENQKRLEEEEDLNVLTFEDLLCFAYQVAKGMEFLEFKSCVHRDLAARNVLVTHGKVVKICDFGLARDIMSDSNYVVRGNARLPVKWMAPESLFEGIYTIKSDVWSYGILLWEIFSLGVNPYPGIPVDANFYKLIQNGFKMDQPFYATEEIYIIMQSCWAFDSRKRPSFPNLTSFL
# Experimental: Inhibition of Flt3 kinase activity by compounds disclosed herein was quantified by measuring the amount of [^33P] incorporated into the substrate in the presence of a test compound. Briefly, a reaction mixture of 25 μL final volume containing 5 ng of Flt3 kinase (obtained by purifying recombinant N-terminal 6×His-tagged Flt3 kinase domain construct expressed from baculovirus), 5 μg of the substrate (Poly (Glu-Tyr, 4:1, Sigma)), kinase reaction buffer (20 mM MOPS pH 7.0, 1 mM EDTA, 5% glycerol, 0.01% Brij-35, 0.1% β-mercaptoethanol, 1 mg/mL BSA, 100 μM ATP, 0.1 μCi per well [^33P]-γ-ATP (2,500-3,000 Ci/mmol)), and a test compound (100 nM, diluted with 4% DMSO) or DMSO (as the control) was incubated at 30° C. for 30 minutes. The reaction was stopped by adding 5 μL of 3% phosphoric acid solution. The resultant reaction solution was then harvested onto a filter plate (UniFilter-96 GF/B, PerkinElmer), washed 20 times for 5 min with d.d. H2O, and followed by the addition of 30 μL of MicroScint™-20 Cocktail (PerkinElmer). The plate was then sealed and counted using a TopCount scintillation detector (PerkinElmer). The percentage of inhibition rate of the test compound was calculated by dividing the retained radioactivity of the test sample with the retained radioactivity of the control sample and shown in Table 3.
# VEGFR2 kinase = target: T2, VEGFR2 kinase (Homo sapiens, UniProt P35968); test: VEGFR2 kinase assay (33P incorporation into Poly(Glu-Tyr)); format: biochemical; conditions: 500 nM test compound; read-out: Inhibition at 500 nM (%) VEGFr-2
# T2 construct: recombinant N-terminal 6×His-tagged VEGFR2 kinase domain construct expressed by baculovirus; 6xHis (N); made in house
# T2 sequence (P35968 834-1162 limits assumed): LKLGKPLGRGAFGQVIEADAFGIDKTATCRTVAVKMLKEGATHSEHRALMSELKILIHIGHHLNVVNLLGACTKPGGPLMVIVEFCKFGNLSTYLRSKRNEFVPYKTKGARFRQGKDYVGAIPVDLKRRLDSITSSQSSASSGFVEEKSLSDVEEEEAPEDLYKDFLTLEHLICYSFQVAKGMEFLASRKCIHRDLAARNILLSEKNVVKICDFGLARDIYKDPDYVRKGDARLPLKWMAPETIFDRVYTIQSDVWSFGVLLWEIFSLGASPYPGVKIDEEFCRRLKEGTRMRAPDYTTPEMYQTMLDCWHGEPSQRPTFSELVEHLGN
# Experimental: Inhibition of VEGFR2 kinase activity by compounds disclosed herein was quantified by measuring the amount of [^33P] incorporated into the substrate in the presence of a test compound. Specifically, a reaction mixture with a final volume of 25 μL and containing 6.25 ng of VEGFR2 kinase (obtained by purifying recombinant N-terminal 6×His-tagged VEGFR2 kinase domain construct expressed by baculovirus), 5 μg of substrate (Poly (Glu-Tyr, 4:1, Sigma)), kinase reaction buffer (20 mM MOPS pH 7.0, 1 mM EDTA, 5% glycerol, 0.01% Brij-35, 0.1% β-mercaptoethanol, 1 mg/mL BSA, 100 μM ATP, 0.1 μCi per well [^33P]-γ-ATP (2,500-3,000 Ci/mmol), and 500 nM test compound (final concentration of DMSO was 4%) or 4% DMSO alone (as the control sample), was incubated at 30° C. for 30 minutes. The reaction was then stopped by adding 5 μL of 3% phosphoric acid solution. The resultant solution was transferred to and harvested by a filter plate (UniFilter-96 GF/B, PerkinElmer). The filter plate was then washed 20 times with d.d. H2O for 5 min followed by the addition of 30 μL of MicroScint™-20 Cocktail (PerkinElmer). After the plate was sealed, the retained radioactivity on the filter was counted using a TopCount scintillation detector (PerkinElmer). The percentage of inhibition rate of the test compound was calculated by dividing the retained radioactivity of the test sample with the retained radioactivity of the control sample and shown in Table 3.
SMILES,inhibition at 0.1 µM (Flt3 kinase) [%],inhibition at 0.5 µM (VEGFR2 kinase) [%]
"O=C(O)CCc1c(/C=C2\C(=O)Nc3ccc(S(=O)(=O)Cc4c(Cl)cccc4Cl)cc32)[nH]c2c1C(=O)CCC2 [DCB-70073, (Z)-5-(2,6-dichlorobenzylsulfonyl)-3-((3-carboxyethyl-4-oxo-4,5,6,7-tetrahydro-1H-indol-2-yl)methylene)indolin-2-one]",1.4,71.3
"CCOC(=O)CCc1c(/C=C2\C(=O)Nc3ccc(NCc4ccccc4)cc32)[nH]c2c1C(=O)CCC2 [DCB-70131, (Z)-ethyl 3-(2-((5-(benzylamino)-2-oxoindolin-3-ylidene)methyl)-4-oxo-4,5,6,7-tetrahydro-1H-indol-3-yl)propanoate]",85.1,65.9
"C=CS(=O)(=O)c1ccc2c(c1)/C(=C/c1[nH]c3c(c1CCC(=O)O)C(=O)CCC3)C(=O)N2 [DCB-70115, (Z)-5-vinylsulfonyl-3-((3-carboxyethyl-4-oxo-4,5,6,7-tetrahydro-1H-indol-2-yl)methylene)indolin-2-one]",26.8,52.2
"COc1cc(-c2ccc3c(c2)/C(=C/c2[nH]c4c(c2CCC(=O)O)C(=O)CCC4)C(=O)N3)ccc1O [DCB-70059, (Z)-5-(4-hydroxyl-3-methoxyphenyl)-3-((3-carboxyethyl-4-oxo-4,5,6,7-tetrahydro-1H-indol-2-yl)methylene)indolin-2-one]",21.5,70.9
"CCOC(=O)CCc1c(/C=C2\C(=O)Nc3cc(-c4ccc(O)c(OC)c4)ccc32)[nH]c2c1C(=O)CCC2 [DCB-70081, (Z)-6-(4-hydroxy-3-methoxyphenyl)-3-((3-(3-ethoxy-3-oxopropyl)-4-oxo-4,5,6,7-tetrahydro-1H-indol-2-yl)methylene)indolin-2-one]",30,80
"CCOC(=O)CCc1c(/C=C2\C(=O)Nc3cc(-c4ccc5c(c4)OCO5)ccc32)[nH]c2c1C(=O)CCC2 [DCB-70128, (Z)-ethyl 3-(2-((6-(benzo[d][1,3]dioxol-5-yl)-2-oxoindolin-3-ylidene)methyl)-4-oxo-4,5,6,7-tetrahydro-1H-indol-3-yl)propanoate]",3.2,19.3
"CCOC(=O)CCc1c(/C=C2\C(=O)Nc3ccccc32)[nH]c2c1C(=O)CCC2 [DCB-70049, (Z)-3-((3-(3-ethoxy-3-oxopropyl)-4-oxo-4,5,6,7-tetrahydro-1H-indol-2-yl)methylene)indolin-2-one]",90.2,79.7
"O=C(O)CCc1c(/C=C2\C(=O)Nc3cc(-c4cc5ccccc5s4)ccc32)[nH]c2c1C(=O)CCC2 [DCB-70080, (Z)-6-(benzo[b]thiophen-2-yl)-3-((3-carboxyethyl-4-oxo-4,5,6,7-tetrahydro-1H-indol-2-yl)methylene)indolin-2-one]",7.4,76.9
"O=C(O)CCc1c(/C=C2\C(=O)Nc3ccc(S(=O)(=O)N4CCCC4)cc32)[nH]c2c1C(=O)CCC2 [DCB-70087, (Z)-5-(pyrrolidin-1-ylsulfonyl)-3-((3-carboxyethyl-4-oxo-4,5,6,7-tetrahydro-1H-indol-2-yl)methylene)indolin-2-one]",1.4,26.3
"CCOC(=O)CCc1c(/C=C2\C(=O)Nc3cc(-c4ccc(F)cc4)ccc32)[nH]c2c1C(=O)CCC2 [DCB-70098, (Z)-6-(4-fluorophenyl)-3-((3-(3-ethoxy-3-oxopropyl)-4-oxo-4,5,6,7-tetrahydro-1H-indol-2-yl)methylene)indolin-2-one]",4.8,20.4
"O=C(O)CCc1c(/C=C2\C(=O)Nc3ccc(S(=O)(=O)N4CCc5ccccc54)cc32)[nH]c2c1C(=O)CCC2 [DCB-70106, (Z)-5-(indolin-1-ylsulfonyl)-3-((3-carboxyethyl-4-oxo-4,5,6,7-tetrahydro-1H-indol-2-yl)methylene)indolin-2-one]",10.2,46.4
"CCOC(=O)CCc1c(/C=C2\C(=O)Nc3ccc(-c4ccc(F)cc4)cc32)[nH]c2c1C(=O)CCC2 [DCB-70108, (Z)-5-(4-fluorophenyl)-3-((3-(3-ethoxy-3-oxopropyl)-4-oxo-4,5,6,7-tetrahydro-1H-indol-2-yl)methylene)indolin-2-one]",11.8,14.1
"CCOC(=O)CCc1c(/C=C2\C(=O)Nc3ccc(NC(=O)c4ccccc4)cc32)[nH]c2c1C(=O)CCC2 [DCB-70096, (Z)-5-benazmido-3-((3-(3-ethoxy-3-oxopropyl)-4-oxo-4,5,6,7-tetrahydro-1H-indol-2-yl)methylene)indolin-2-one]",5.9,44.2
"CCOC(=O)CCc1c(/C=C2\C(=O)Nc3ccc(NS(=O)(=O)CC)cc32)[nH]c2c1C(=O)CCC2 [DCB-70118, (Z)-5-ethylsulfonamido-3-((3-(3-ethoxy-3-oxopropyl)-4-oxo-4,5,6,7-tetrahydro-1H-indol-2-yl)methylene)indolin-2-one]",12.7,51.9
"O=C(O)CCc1c(/C=C2\C(=O)Nc3cc(F)ccc32)[nH]c2c1C(=O)CCC2 [DCB-70123, (Z)-6-fluoro-3-((3-carboxyethyl-4-oxo-4,5,6,7-tetrahydro-1H-indol-2-yl)methylene)indolin-2-one]",61.1,90.8
"CCS(=O)(=O)c1ccc2c(c1)/C(=C/c1[nH]c3c(c1CCC(=O)O)C(=O)CCC3)C(=O)N2 [DCB-70116, (Z)-5-ethylsulfonyl-3-((3-carboxyethyl-4-oxo-4,5,6,7-tetrahydro-1H-indol-2-yl)methylene)indolin-2-one]",19.4,47.9
"O=C(O)CCc1c(/C=C2\C(=O)Nc3cc(-c4cc(F)cc(F)c4)ccc32)[nH]c2c1C(=O)CCC2 [DCB-70101, (Z)-6-(3,5-difluorophenyl)-3-((3-carboxyethyl-4-oxo-4,5,6,7-tetrahydro-1H-indol-2-yl)methylene)indolin-2-one]",8.5,73.8
"CCOC(=O)CCc1c(/C=C2\C(=O)Nc3ccc(F)cc32)[nH]c2c1C(=O)CCC2 [DCB-70053, (Z)-5-fluoro-3-((3-(3-ethoxy-3-oxopropyl)-4-oxo-4,5,6,7-tetrahydro-1H-indol-2-yl)methylene)indolin-2-one]",97.3,85.2
"CCOC(=O)CCc1c(/C=C2\C(=O)Nc3cc(Br)ccc32)[nH]c2c1C(=O)CCC2 [DCB-70130, (Z)-ethyl 3-(2-((6-bromo-2-oxoindolin-3-ylidene)methyl)-4-oxo-4,5,6,7-tetrahydro-1H-indol-3-yl)propanoate]",89.1,69.8
"O=C(O)CCc1c(/C=C2\C(=O)Nc3cc(-c4ccc(O)c(O)c4)ccc32)[nH]c2c1C(=O)CCC2 [DCB-70078, (Z)-6-(3,4-dihydroxyphenyl)-3-((3-carboxyethyl-4-oxo-4,5,6,7-tetrahydro-1H-indol-2-yl)methylene)indolin-2-one]",75,98.9
"O=C(O)CCc1c(/C=C2\C(=O)Nc3ccc(NCc4ccccc4)cc32)[nH]c2c1C(=O)CCC2 [DCB-70132, (Z)-3-(2-((5-(benzylamino)-2-oxoindolin-3-ylidene)methyl)-4-oxo-4,5,6,7-tetrahydro-1H-indol-3-yl)propanoic acid]",3.7,15.8
